Experimental data as given in patent publication US6337344B1, “Indole derivatives as inhibitors or factor Xa” (Aventis Pharma Deutschland GmbH, priority 1997, dated 2002).
Counter-ions that a name gives are not always drawn.

| Structure (SMILES) | melting point |
| --- | --- |
| CN(C)c1ccc(CNC(=O)c2cn(Cc3cccc(C(=N)N)c3)c3ccccc23)cc1.O=C(O)C(F)(F)F.O=C(O)C(F)(F)F | 92 to 96 °C |
| C[N+](C)(C)c1ccc(CNC(=O)c2cn(Cc3cccc(C(=N)N)c3)c3ccccc23)cc1.O=C(O)C(F)(F)F.O=C([O-])C(F)(F)F | 177 °C (dec.) |
| CC(=O)O.C[C@@H](NC(=O)c1cc2cc(OCc3ccccc3)ccc2n1Cc1cccc(C(=N)N)c1)c1ccccc1 | 72 °C (dec.) |
| CC(=O)O.N=C(N)c1cccc(Cn2c(C(=O)NCc3ccccc3)cc3ccccc32)c1 | 266 to 268 °C (dec.) |
| COc1cccc2c1cc(C(=O)NCCc1ccc(O)cc1)n2Cc1cccc(C(=N)N)c1.O=C(O)C(F)(F)F | 140 to 142 °C |
| N=C(N)c1cccc(COC(=O)c2cc3ccccc3n2Cc2cccc(C(=N)N)c2)c1.O=C(O)C(F)(F)F.O=C(O)C(F)(F)F | 258 °C |
| N=C(N)c1cccc(Cn2c(C(=O)NCc3ccc(Cl)cc3)cc3ccccc32)c1.O=C(O)C(F)(F)F | 230 °C (dec.) |
| Cc1cccc2c1cc(C(=O)NCc1ccc([N+](C)(C)Cc3ccccc3)cc1)n2Cc1cccc(C(=N)N)c1.O=C(O)C(F)(F)F.O=C([O-])C(F)(F)F | 113 °C (dec.) |
| CC[N+](C)(C)c1ccc(CNC(=O)c2cc3cc(F)ccc3n2Cc2cccc(C(=N)N)c2)cc1.O=C(O)C(F)(F)F.O=C([O-])C(F)(F)F | 73 to 75 °C (dec.) |
| CN(C)c1ccc(CNC(=O)c2cc3cc(F)ccc3n2Cc2cccc(C(=N)N)c2)cc1.O=C(O)C(F)(F)F.O=C(O)C(F)(F)F | 90 °C (dec.) |
| CC(=O)O.CC(=O)[O-].C[N+](C)(C)c1ccc(CNC(=O)c2cc3cc(F)ccc3n2Cc2cccc(C(=N)N)c2)cc1 | 172 °C (dec.) |
| C[N+](C)(C)c1ccc(CNC(=O)c2cc3cc(F)ccc3n2Cc2cccc(C(=N)N)c2)cc1.O=C(O)C(F)(F)F.O=C([O-])C(F)(F)F | 120 to 124 °C |
| Cc1cccc2c1cc(C(=O)NCc1ccc(N(C)C)cc1)n2Cc1cccc(C(=N)N)c1.O=C(O)C(F)(F)F.O=C(O)C(F)(F)F | 106 °C (dec.) |
| C[N+](C)(C)c1ccc(CNC(=O)c2cc3cc([N+](=O)[O-])ccc3n2Cc2cccc(C(=N)N)c2)cc1.O=C(O)C(F)(F)F.O=C([O-])C(F)(F)F | 120 °C (dec.) |
| C[N+](C)(C)c1ccc(CNC(=O)c2cc3cc(N)ccc3n2Cc2cccc(C(=N)N)c2)cc1.O=C(O)C(F)(F)F.O=C(O)C(F)(F)F.O=C([O-])C(F)(F)F | 114 °C (dec.) |
| CC(=O)O.C[N+](C)(C)c1ccc(CNC(=O)c2cc3cc(S(C)(=O)=O)ccc3n2Cc2cccc(C(=N)N)c2)cc1.O=C([O-])C(F)(F)F | 70 °C (dec.) |
| CC(=O)O.CC(=O)[O-].COc1ccc2c(c1)cc(C(=O)NCc1ccc([N+](C)(C)C)cc1)n2Cc1cccc(C(=N)N)c1 | 94 °C (dec.) |
| COc1cccc2c1cc(C(=O)NCCc1cc[n+](C)cc1)n2Cc1cccc(C(=N)N)c1.O=C(O)C(F)(F)F.O=C([O-])C(F)(F)F | 164 °C (dec.) |
| CC(=O)O.CCOC(=O)c1cc2c(C)cccc2n1Cc1cccc(C(=N)N)c1 | 187 °C (dec.) |
| Cl.N=C(N)c1ccc(Cn2c(C(=O)NCc3ccccc3)cc3ccccc32)cc1 | 266 to 268 °C (dec.) |
| N=C(N)c1cccc(Cn2c(C(N)=O)cc3ccccc32)c1.O=C(O)C(F)(F)F | 278 °C (dec.) |
| N=C(N)c1ccc(Cn2c(C(=O)NCc3ccc(Cl)cc3)cc3ccccc32)cc1.O=C(O)C(F)(F)F | 268 °C (dec.) |

| Structure (SMILES) | melting point |
| --- | --- |
| CC(=O)O.CC(=O)[O-].C[N+](C)(C)c1ccc(CNC(=O)c2cc3cc(F)ccc3n2Cc2cccc(C3=NCCN3)c2)cc1 | 51 °C (dec.) |
| COc1cccc2c1cc(C(=O)NCCc1ccncc1)n2Cc1cccc(/C(N)=N/O)c1.Cl.Cl | 215 to 217 °C |
| C[N+](C)(C)c1ccc(CNC(=O)c2cc3cc(Cl)ccc3n2Cc2cccc(C(=N)N)c2)cc1.O=C(O)C(F)(F)F.O=C([O-])C(F)(F)F | 112 °C (dec.) |
| C[N+](C)(C)c1ccc(CNC(=O)c2cc3cc(O)ccc3n2Cc2cccc(C(=N)N)c2)cc1.O=C(O)C(F)(F)F.O=C([O-])C(F)(F)F | 78 °C (dec.) |
| C[N+](C)(Cc1ccccc1)c1ccc(CNC(=O)c2cc3cc(F)ccc3n2Cc2cccc(C(=N)N)c2)cc1.Cl.[Cl-] | 136 °C |
| C=CC[N+](C)(C)c1ccc(CNC(=O)c2cc3cc(F)ccc3n2Cc2cccc(C(=N)N)c2)cc1.CC(=O)O.[Cl-] | 133 °C (dec.) |
| C#CC[N+](C)(C)c1ccc(CNC(=O)c2cc3cc(F)ccc3n2Cc2cccc(C(=N)N)c2)cc1.CC(=O)O.CC(=O)[O-] | 109 °C (dec.) |
| CC(=O)O.CC(=O)O.Cc1cccc2c1cc(C(=O)OCc1cccc(C(=N)N)c1)n2Cc1cccc(C(=N)N)c1 | 53 °C (dec.) |
| CC(=O)O.CC(=O)[O-].Cc1cccc2c1cc(C(=O)NCc1ccc([N+](C)(C)C)cc1)n2Cc1cccc(C(=N)N)c1 | 89 °C (dec.) |
| COc1cccc2c1cc(C(=O)NCc1ccc(O)cc1)n2Cc1cccc(C(=N)N)c1.Cl | 202 °C (dec.) |
| CC(=O)O.CC(=O)O.N=C(N)c1cccc(COC(=O)c2cc3cc(OCc4ccccc4)ccc3n2Cc2cccc(C(=N)N)c2)c1 | 147 °C (dec.) |
| N=C(N)c1cccc(CNC(=O)c2cc3cc(O)ccc3n2Cc2cccc(C(=N)N)c2)c1.O=C(O)C(F)(F)F.O=C(O)C(F)(F)F | 125 °C (dec.) |
| CC(=O)O.CC(=O)[O-].C[N+](C)(C)c1ccc(CNC(=O)c2cc3c(Br)cccc3n2Cc2cccc(C(=N)N)c2)cc1 | 145 °C (dec.) |
| CC(=O)O.CC(=O)[O-].C[N+](C)(C)c1ccc(CNC(=O)c2cc3cc(Br)ccc3n2Cc2cccc(C(=N)N)c2)cc1 | 86 °C (dec.) |
| CN(C)c1ccc(CNC(=O)c2cc3ccccc3n2Cc2cccnc2)cc1 | 108 to 110 °C |
| C[n+]1ccc(CNC(=O)c2cc3cc(N)ccc3n2Cc2cccc(C(=N)N)c2)cc1.O=C(O)C(F)(F)F.O=C(O)C(F)(F)F.O=C([O-])C(F)(F)F | 115 °C |
| N=C(N)c1cccc(Cn2c(C(=O)NCCc3ccc(Cl)cc3Cl)cc3c(O)cccc32)c1.O=C(O)C(F)(F)F | 144 °C |
| N=C(N)c1cccc(CNC(=O)Cc2cn(Cc3cccc(C(=N)N)c3)c3ccccc23)c1.O=C(O)C(F)(F)F.O=C(O)C(F)(F)F | 196 °C (dec.) |
| N=C(N)c1cccc(CNC(=O)c2cc3cc(OCc4ccccc4)ccc3n2Cc2cccc(C(=N)N)c2)c1 (as salt: hydroiodid) [Example 59, 1-(3-Amidino-benzyl)-5-benzyloxy-1H-indole-2-carboxylic acid 3-amidino-benzylamide dihydroiodide] | 138 °C (dec.) |
| C[N+](C)(C)c1ccc(CNC(=O)c2c(Cl)c3ccccc3n2Cc2cccc(C(=N)N)c2)cc1 (as salt: trifluoroacetic acid salt) [Example 106] | 57 °C |
| Cc1cc(CNC(=O)c2cc3c(O)cccc3n2Cc2cccc(C(=N)N)c2)cc(C(F)(F)F)c1 (as salt: trifluoroacetic acid salt) [Example 112] | 126 °C |
| N=C(N)c1cccc(CNC(=O)c2c(Cl)c3ccccc3n2Cc2cccc(C(=N)N)c2)c1 (as salt: trifluoroacetic acid salt) [Example 115] | 227 °C |
